In patent publication US6342485B1, “Synergistic compositions useful as anti-tumor agents” (priority 1999, dated 2002):
Read-outs that look alike come from different tables or passages of the source.

Key:
[1] = cited from earlier work
[2] = system: H630-10 human colorectal tumor cells; assay: MTT assay; format: cell-based; settings: H630-10 cells, 24 h drug exposure
Text: All culture media were supplemented with penicillin/streptomycin.

[3] = system: H630-10 human colorectal tumor cells; assay: Clonogenic assay; format: cell-based; settings: H630-10 cells, 72 h drug exposure
Experimental: (§1) About one thousand viable H630 or H630-10 cells suspended in 10 mL of RPMI 1640 medium with 9% NU serum IV were grown at 37° C. in a humidified 5% CO2-air atmosphere in 100×20 mm plastic petri dishes. After 48 h, the medium was removed, and replaced with 10 mL of fresh medium containing either 5-FU, FdUMP[10], or both 5-FU and FdUMP[10]. After 72 h, the medium containing drugs was removed and replaced by fresh medium. Plates were incubated for 2 to 3 weeks with fresh medium added, if necessary, after which the medium was removed, and the clones were identified by staining with 0.1% methylene blue in 70% ethanol aqueous solution. The number of surviving colonies was counted, and calculated as a percent of controls. Each study was repeated twice.

[4] = system: H630 human colorectal tumor cells; assay: Clonogenic assay; format: cell-based; settings: for IC50: Clonogenic assay, H630 cells, 72 h drug exposure
Experimental: as §1

[5] = system: H630 human colorectal tumor cells; assay: cells; settings: NCI-H630, 24 h
Experimental: (§2) The antiproliferative activities of FdUMP[10] and 5-FU for the human colorectal tumor cell lines H630 and H630-10 were compared using an assay for 3-(4,5-dimethylthiazol-2-yl)-2,5-diphenyltetrazolium bromide (MTT). H630 and H630-10 cells were cultured using RPMI 1640 containing L-glutamine and supplemented with 10% Nu-serum IV. All culture media were supplemented with penicillin/streptomycin. 25,000 cells were plated (96 well flute-bottom plate) in 200 μL of medium at 37° C. overnight in an air atmosphere containing 5% CO2. The medium was replaced the next day, and cells were exposed to the drugs for 24 h. The medium was then removed from the plates and replaced with 100 μL of fresh medium and 25 μL of MTT solution (5 μg/μL in PBS) per well. Following 2 h incubation, 100)L of MTT solvent (20% w/v SDS dissolved in DMF:H2O [1:1], pH 4.7) was added to each well and the plates were incubated overnight (Senderoff et al., 1990). The plates were analyzed the following morning on a Titerek Multiscan Plus 96-well plate analyzer (v.1.4). The number of viable cells in each well containing cells treated with drug was calculated from the absorbance at 570 nm compared to untreated controls. The means and standard deviation at each concentration for each drug were calculated using standard statistical methods. MTT assays were run in duplicate or triplicate to assure the statistical significance of the results.

[6] = system: H630 human colorectal tumor cells
Experimental: as §2

cells = assay: Preliminary rescue experiments on the mechanism of cytotoxicity; format: cell-based
H630 cells = assay: TUNEL assay for induction of apoptosis; format: cell-based, human; settings: TUNEL staining, H630 cells exposed for 72 h, data not shown
Experimental: About one million H630 cells were seeded into each of the T-75 cell culture flasks. Two days later, after two doubling times, the cells were exposed to FdUMP[10]. The cells were exposed to FdUMP[10] for 72 h, and then fixed with 1% methanol-free formaldehyde for 20 min at 0° C. The fixed-cells were then placed in a 70% ethanol solution at −20° C. for two weeks. The ethanol was then removed, and the cells were washed with PBS and incubated with TdT buffer (Promega), containing equilibration buffer, nucleotide mixture and TdT enzyme, at 37° C. for 1 hour. The reaction was terminated by addition of EDTA solution and the incubation buffer was then removed. The cells were then treated with 0.1% Triton, followed by propidium iodide containing DNase-free RNAse. The cells were kept at room temperature for 30 min, and then analyzed by flow cytometry.

IC50 ([2]; Homo sapiens) | IC50 ([3]; Homo sapiens) | IC50 ([4]; Homo sapiens, NCI-H630) | IC50 [5] | efficiency of FdUMP[10] relative to 5-FU [6] | IC50 ([6]; MTT assay, H630 cells, 24 h drug exposure) | IC50 [2] | IC50 [3] | IC50 [4] | Compound | half-life in-vivo [1] | effect on the growth of H630 cells as single agent ([4]; FdUMP[10] alone at 4.0×10^−8 and 6.0×10^−8 M) | rescue of cells from FdUMP[10] by deoxythymidine (cells) | reversal of the effects of FdUMP[10] by uridine (cells) | cells undergoing apoptosis (H630 cells)
27.1 µM | 75 µM | 3.9 µM | 4.87 µM |  |  |  |  |  | O=c1[nH]cc(F)c(=O)[nH]1 [5-FU, 5-fluorouracil, reference compound] | about 18 minutes |  |  |  | 
 |  |  |  | about 400 times | 0.0169 µM | 0.0995 µM | 0.071 µM | 0.25 µM | FdUMP[10] |  | no significant effect | does not rescue | partially reverse | ~100%
